For one data set, the target named is T1, human Edg-1 (S1P1) (Homo sapiens, UniProt P21453).
T1 construct: expressed in transfected cells; host or cells: HEK-293
Description: S1P1 binding assay: inhibition of [33P]-S1P binding to membrane fraction of HEK-293 cells transferred with the human Edg-1 (S1P1) gene. Conditions: for IC50: [33P]-S1P 0.1 nM, human Edg-1 (S1P1) HEK-293 membrane fraction, 1 h at 30° C., read-out: IC50 (concentration at which binding in the absence of the test compound was inhibited by 50%). Put shortly: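 With 0.1 nM [33P]-S1P and compound (10^−5M single point, or a concentration range for IC50) in 0.1% DMSO, membrane fractions from human Edg-1-expressing HEK-293 cells were treated for one hour at 30° C in 20 mM Tris-HCl pH 7.4 with NaF, deoxypyridoxine and BSA. Bound label was measured after filtration, with untransfected-cell background subtracted.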

Setting [1] is: test compound 10 μM, inhibition of [33P]-S1P binding, membrane fraction.
The mark [2] stands for this setting: test compound at 10 μM, inhibition of [33P]-S1P binding to the membrane fraction of HEK-293 cells expressing human Edg-1 (S1P1).

One may read the inhibition as the relative decrease from the control value, in per cent. In general, melting point refers to the temperature of the solid-liquid transition.

Molecules are shown by their SMILES.

T1 sequence (P21453 whole entry): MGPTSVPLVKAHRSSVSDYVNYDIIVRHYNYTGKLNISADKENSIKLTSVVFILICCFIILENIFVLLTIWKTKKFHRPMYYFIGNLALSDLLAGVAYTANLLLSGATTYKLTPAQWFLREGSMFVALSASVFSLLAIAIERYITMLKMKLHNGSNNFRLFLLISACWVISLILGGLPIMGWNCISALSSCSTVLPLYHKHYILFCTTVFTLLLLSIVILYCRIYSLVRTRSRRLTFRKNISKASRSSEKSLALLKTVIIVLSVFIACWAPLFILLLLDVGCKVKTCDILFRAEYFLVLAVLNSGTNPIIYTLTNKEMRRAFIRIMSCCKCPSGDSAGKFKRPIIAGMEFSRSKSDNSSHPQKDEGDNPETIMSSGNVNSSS

`CCn1c(Oc2ccc(F)c(N3CCN(C)CC3)c2)nnc1[C@@H](C)NS(=O)(=O)c1ccc(Cl)c(Cl)c1` [Compound 681] returned a melting point of 189 to 189.5 °C. In addition, the IC50 at human Edg-1 (S1P1) was not above 10 nM. Further, at human Edg-1 (S1P1) (setting [1]), the inhibition at 10 µM came out at 100%.
With `CCn1c(Oc2ccc3c(c2)N=S=N3)nnc1[C@@H](C)NS(=O)(=O)c1ccc(Cl)c(Cl)c1` [Compound 81], the melting point lay within 160 to 165 °C. Moreover, the inhibition at 10 µM at human Edg-1 (S1P1) (setting [2]) is 93.2%.
`CCn1c(Oc2cccc(N3CCN(CCN(C)C)CC3)c2)nnc1[C@@H](C)NS(=O)(=O)c1ccc(Cl)c(Cl)c1` [Compound 83] displayed a melting point of 170 to 173 °C. The IC50 at human Edg-1 (S1P1) is 8.1 nM. Further, the inhibition at 10 µM at human Edg-1 (S1P1) (setting [2]) is 101%.
`CCn1c(Oc2cccc(N)c2)nnc1[C@@H](C)NS(=O)(=O)c1ccc(Cl)c(Cl)c1` [Compound 82, N-[(R)-1-[5-(3-Amino-phenoxy)-4-ethyl-4H-[1,2,4]triazol-3-yl]-ethyl]-3,4-dichlorobenzenesulfonamide] registered a melting point of 142 to 145 °C. Besides, on human Edg-1 (S1P1) (setting [2]), the inhibition at 10 µM came out at 101%.
Turning to `CCn1c(Oc2ccc(F)cc2)nnc1C(C)(C)NS(=O)(=O)c1ccc(Cl)c(Cl)c1` [Compound 682], the melting point is 228 to 228.5 °C. The inhibition at 10 µM at human Edg-1 (S1P1) (setting [1]) was determined as 76.6%.
In the case of `CCn1c(Oc2cccc(C(=O)O)c2)nnc1[C@@H](C)NS(=O)(=O)c1ccc(Cl)c(Cl)c1` [Compound 113, 3-[5-[(R)-1-(3,4-Dichlorobenzenesulfonylamino)-ethyl]-4-ethyl-4H-[1,2,4]triazol-3-yloxy]-benzoic acid], the melting point is 183 to 185 °C. The inhibition at 10 µM on human Edg-1 (S1P1) (setting [2]) is 74.2%.
For the compound `CCn1c(Oc2ccc3cc[nH]c3c2)nnc1[C@@H](C)NS(=O)(=O)c1ccc(Cl)c(Cl)c1` [Compound 64], the melting point was 223 to 224 °C. Moreover, the IC50 at human Edg-1 (S1P1) is not above 35 nM. For the same compound, the inhibition at 10 µM at human Edg-1 (S1P1) (setting [2]) was determined as 101%.
The compound `CCn1c(Oc2ccc(C)cc2)nnc1[C@@H](C)NS(=O)(=O)c1ccc(Cl)c(Cl)c1` [Compound 3] returned a melting point of 183.5 to 187.5 °C. Moreover, the IC50 on human Edg-1 (S1P1) was determined as 4.2 nM. Besides, the inhibition at 10 µM on human Edg-1 (S1P1) (setting [2]) was 98.7%.
`CCn1c(Oc2cccc(N3CCN(C(C)C)CC3)c2)nnc1[C@@H](C)NS(=O)(=O)c1ccc2cccc(Cl)c2c1` [Compound 669]: the melting point is 131.5 to 132.5 °C. For the same compound, at human Edg-1 (S1P1), the IC50 was not above 10 nM. Also, the inhibition at 10 µM on human Edg-1 (S1P1) (setting [1]) was determined as 100%.
Regarding `CCCc1ccc(Oc2nnc([C@@H](C)NS(=O)(=O)c3ccc(Cl)c(Cl)c3)n2CC)cc1` [Compound 25], the melting point was 155 to 156 °C. The IC50 on human Edg-1 (S1P1) was not above 35 nM. Moreover, the inhibition at 10 µM at human Edg-1 (S1P1) (setting [2]) came to 97.5%.
For `CCn1c(Oc2ccc(OCCN3CCOCC3)cc2)nnc1[C@@H](C)NS(=O)(=O)c1ccc(Cl)c(Cl)c1` [Compound 36], in that order: 125 to 130 °C, 17.5 nM and 102%.
For `CCn1c(Oc2cccc(N3CCN(C)CC3)c2)nnc1[C@@H](C)NS(=O)(=O)c1ccc2c(Cl)ccc(Cl)c2c1` [Compound 694], the melting point lay within 189 to 191 °C. For the same compound, on human Edg-1 (S1P1), the IC50 was found to be 2.9 nM. Moreover, the inhibition at 10 µM at human Edg-1 (S1P1) (setting [1]) came to 106%.
On to `CCn1c(Oc2cccc(N3CCN(C)CC3)c2)nnc1[C@@H](C)NS(=O)(=O)c1ccc2c(I)cccc2c1` [Compound 691], for which the melting point lay in the range of 180 to 182 °C. Moreover, the IC50 on human Edg-1 (S1P1) turned out to be 2.6 nM. The “Binding assay (membrane) % inhibition (10 μM)” value at human Edg-1 (S1P1) (setting [1]) is reported as 98.5%.
Turning to `CCn1c(Oc2ccc(Cl)cc2)nnc1[C@@H](C)NS(=O)(=O)c1ccc(Cl)c(Cl)c1` [Compound 8], the melting point lay within 179 to 189.5 °C. The IC50 on human Edg-1 (S1P1) turned out to be 18.5 nM. Moreover, on human Edg-1 (S1P1) (setting [2]), the inhibition at 10 µM was 100%.
The like results for `CCn1c(Oc2ccc(Cl)c(Cl)c2)nnc1[C@@H](C)NS(=O)(=O)c1ccc(Cl)c(Cl)c1` [Compound 13] were, in that order, 152 to 156 °C, not above 35 nM and 102%.
For `CCn1c(Oc2cccc(N3CCN(C)CC3)c2)nnc1[C@@H](C)NS(=O)(=O)c1ccc(F)c(Cl)c1` [Compound 109], in that order: 152 to 153 °C, not above 35 nM and 104%.
For `CCn1c(Oc2ccc(N3CCCC3)cc2)nnc1[C@@H](C)NS(=O)(=O)c1ccc(Cl)c(Cl)c1` [Compound 49], in that order: 198 to 199 °C, 6 nM and 102%.
Compound `CCn1c(Oc2ccc(-c3ccccc3)cc2)nnc1[C@@H](C)NS(=O)(=O)c1ccc(Cl)c(Cl)c1` [Compound 29] gave a melting point of 177 to 178.5 °C. Further, at human Edg-1 (S1P1) (setting [2]), the inhibition at 10 µM was determined as 101%.
In the case of `CCn1c(Oc2cccc(N3CCN(C)CC3)c2)nnc1[C@@H](C)NS(=O)(=O)c1cc2ccccc2s1` [Compound 144], the melting point was 187 to 188 °C. The IC50 on human Edg-1 (S1P1) was 7.9 nM. Also, on human Edg-1 (S1P1) (setting [2]), the inhibition at 10 µM came out at 99.4%.
For `CCn1c(Oc2cccc(N(C(C)C)C(C)C)c2)nnc1[C@@H](C)NS(=O)(=O)c1ccc(Cl)c(Cl)c1` [Compound 107], in that order: 159 to 162 °C, not above 10 nM and 104%.
`CCn1c(Oc2cccc(NS(C)(=O)=O)c2)nnc1[C@@H](C)NS(=O)(=O)c1ccc(Cl)c(Cl)c1` [Compound 102, 3,4-Dichloro-N-[(R)-1-[4-ethyl-5-(3-methanesulfonylamino-phenoxy)-4H-[1,2,4]triazol-3-yl]-ethyl]-benzenesulfonamide] gave a melting point of 117 to 118 °C. The IC50 at human Edg-1 (S1P1) is not above 35 nM. The inhibition at 10 µM on human Edg-1 (S1P1) (setting [2]) came out at 104%.
`CCn1c(Oc2cc(Cl)cc(Cl)c2)nnc1[C@@H](C)NS(=O)(=O)c1ccc(Cl)c(Cl)c1` [Compound 30] gave a melting point of 212 to 216 °C. For the same compound, the inhibition at 10 µM at human Edg-1 (S1P1) (setting [2]) stood at 100%.
In turn, `CCn1c(Oc2cccc(OC)c2)nnc1[C@@H](C)NS(=O)(=O)c1ccc(Cl)c(Cl)c1` [Compound 69] had a melting point of 119 to 120.5 °C. Further, the IC50 on human Edg-1 (S1P1) is not above 35 nM. The inhibition at 10 µM on human Edg-1 (S1P1) (setting [2]) was 103%.
With `CCn1c(Oc2ccc(F)cc2)nnc1[C@@H](C)NS(=O)(=O)c1ccc2ccccc2c1` [Compound 122], the melting point fell in the range of 167 to 170 °C. On human Edg-1 (S1P1), the IC50 was not above 35 nM. Moreover, at human Edg-1 (S1P1) (setting [2]), the inhibition at 10 µM worked out at 81.9%.
The like results for `CCn1c(Oc2ccc(Cl)c(C)c2)nnc1[C@@H](C)NS(=O)(=O)c1ccc(Cl)c(Cl)c1` [Compound 26] were, in that order, 159 to 164 °C, not above 35 nM and 97.9%.
For `CCn1c(Oc2cc(C)ccn2)nnc1[C@@H](C)NS(=O)(=O)c1ccc(Cl)c(Cl)c1` [Compound 66], the melting point fell in the range of 183 to 190 °C. In addition, at human Edg-1 (S1P1) (setting [2]), the inhibition at 10 µM is 93.4%.
For the compound `CCn1c(Oc2cccc(N3CCCC3)c2)nnc1[C@@H](C)NS(=O)(=O)c1ccc(Cl)c(Cl)c1` [Compound 79], the melting point was in the range of 190 to 195 °C. Besides, the inhibition at 10 µM at human Edg-1 (S1P1) (setting [2]) is 104%.
In turn, `CCn1c(Oc2cccc(N3CCN(C)CC3)c2)nnc1[C@@H](C)NS(=O)(=O)c1ccc2ccccc2c1` [Compound 121] gave a melting point of 195.5 to 198.5 °C. Further, the IC50 on human Edg-1 (S1P1) was not above 10 nM. On human Edg-1 (S1P1) (setting [2]), the inhibition at 10 µM turned out to be 103%.
As for `CCn1c(Oc2ccc3cc[nH]c3c2)nnc1[C@@H](C)NS(=O)(=O)c1cc(C)c(Cl)cc1Cl` [Compound 131], the melting point was in the range of 102 to 110.5 °C. Moreover, on human Edg-1 (S1P1), the IC50 was not above 35 nM. On human Edg-1 (S1P1) (setting [2]), the inhibition at 10 µM worked out at 97.3%.
In turn, `CCn1c(Oc2ccc3cc[nH]c3c2)nnc1[C@@H](C)NS(=O)(=O)c1ccc(C(F)(F)F)cc1` [Compound 136] returned a melting point of 100 to 106 °C. The IC50 at human Edg-1 (S1P1) is 8.1 nM. Moreover, on human Edg-1 (S1P1) (setting [2]), the inhibition at 10 µM was determined as 96.5%.
`CCn1c(Oc2cc3nc(C)cc(C)n3n2)nnc1[C@@H](C)NS(=O)(=O)c1ccc(Cl)c(Cl)c1` [Compound 96] registered a melting point of 191 to 194 °C. For the same compound, the inhibition at 10 µM on human Edg-1 (S1P1) (setting [2]) is 78.7%.
For `CCn1c(Oc2ccc3c(c2)CCC(=O)N3)nnc1[C@@H](C)NS(=O)(=O)c1ccc(Cl)c(Cl)c1` [Compound 68], in that order: 212 to 223 °C and 101%.
The like results for `CCn1c(Nc2ccc(F)cc2)nnc1[C@@H](C)NS(=O)(=O)c1ccc(Cl)c(Cl)c1` [Compound 116] were, in that order, 192 to 195 °C and 83.1%.
With `CCn1c(Oc2cccc(N3CCN(C)CC3)c2)nnc1[C@@H](C)NS(=O)(=O)c1ccc2cccc(Cl)c2c1` [Compound 666], the melting point fell in the range of 143.5 to 144.5 °C. In addition, at human Edg-1 (S1P1), the IC50 was not above 10 nM. For the same compound, the inhibition at 10 µM on human Edg-1 (S1P1) (setting [1]) was determined as 97.9%.
Compound `CCn1c(Oc2cccc(N3CCCCC3)c2)nnc1[C@@H](C)NS(=O)(=O)c1ccc(Cl)c(Cl)c1` [Compound 73] showed a melting point of 185 to 187 °C. In addition, the IC50 on human Edg-1 (S1P1) amounted to 2.2 nM. In addition, the inhibition at 10 µM at human Edg-1 (S1P1) (setting [2]) turned out to be 103%.
Regarding `CCn1c(Oc2ccccc2)nnc1[C@@H](Cc1ccccc1)NS(=O)(=O)c1ccc(Cl)c(Cl)c1` [Compound 1], the melting point was 182 to 184 °C. Further, at human Edg-1 (S1P1) (setting [2]), the inhibition at 10 µM turned out to be 93.4% and the “Binding assay (membrane) % inhibition (10 μM)” value turned out to be 100.8%.
In turn, `CCn1c(Oc2ccc3cc[nH]c3c2)nnc1[C@@H](C)NS(=O)(=O)c1ccc2cccc(Cl)c2c1` [Compound 670] showed a melting point of 214.5 to 218 °C. Moreover, at human Edg-1 (S1P1), the IC50 was 5.2 nM. Further, at human Edg-1 (S1P1) (setting [1]), the inhibition at 10 µM was 101%.

Values taken from patent US8022091B2, “Triazole derivative” (Taisho Pharmaceutical Co., Ltd., priority 2006, dated 2011).
